Holding throughout (type): biochemical
Experiment [1] deals with T1, recombinant human PAI-1 (Homo sapiens, UniProt P05121).
T1 construct: purchased Molecular Innovations, Inc
Kind of experiment: Test Example 1: human PAI-1 inhibitory activity (tPA fluorogenic substrate assay, pH7.5 Tris buffer). As to conditions: for inhibition at 5 µM: pH 7.5, compound 5 μM; for inhibition at 5 µM / inhibition at 10 µM / inhibition at 25 µM: read-out: Inhibition Rate of Human PAI-1 Activity (%); for inhibition at 10 µM: pH 7.5, compound 10 μM; for inhibition at 25 µM: pH 7.5, compound 25 μM. The text has this:
<Composition of pH7.5 Tris Buffer)
0.01% Tween80 (SIGMA-ALDRICH Corporation)

Experiment [2] addresses T2, recombinant rat PAI-1 (Rattus norvegicus, UniProt P20961).
T2 construct: purchased Molecular Innovations, Inc
T2 sequence (P20961 24-402): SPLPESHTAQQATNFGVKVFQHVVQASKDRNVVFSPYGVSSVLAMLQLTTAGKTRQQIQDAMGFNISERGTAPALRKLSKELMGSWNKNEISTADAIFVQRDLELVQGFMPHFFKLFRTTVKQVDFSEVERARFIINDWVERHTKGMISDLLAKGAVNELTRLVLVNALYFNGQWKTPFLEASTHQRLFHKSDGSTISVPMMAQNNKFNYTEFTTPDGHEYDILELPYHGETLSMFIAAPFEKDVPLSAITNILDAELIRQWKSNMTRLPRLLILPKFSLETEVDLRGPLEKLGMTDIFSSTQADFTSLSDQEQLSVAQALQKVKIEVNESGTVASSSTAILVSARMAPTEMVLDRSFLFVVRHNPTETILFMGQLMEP
In words: Test Example 3: rat PAI-1 inhibitory activity (tPA fluorogenic substrate assay, pH7.4 HEPES buffer). As to conditions: for IC50: pH7.4 HEPES buffer, obtained from Table 7 results. Here is the method: (§1) Except using the pH7.4 HEPES buffer instead of pH7.5 Tris buffer, and the change of incubation time from 15 minutes to 10 minutes of the mixed solution added by two-chain tPA solution, tests were carried out similarly to the Test Example 1.

The target of experiment [3] is T1, recombinant human PAI-1. Kind of experiment: Test Example 4: human PAI-1 inhibitory activity (amount of PAI-1 bound to plate-coated tPA, ELISA). The conditions noted are these: PAI-1 50 ng/ml bound to coated tPA, read-out: Inhibition Rate of Human PAI-1 Activity (%); for inhibition at 0.1 µM: compound 0.1 μM; for inhibition at 0.3 µM: compound 0.3 μM. Here is the method:
100 μl of tPA solution where one-chain recombinant tPA (hereinafter refereed to as tPA; American diagnostica, inc.) diluted with Buffer A to achieve a concentration of 10 μg/ml was added to each well of 96-well plate (Nunc Maxisorp), incubated for one night at […] to coated with tPA. Then, after suction of tPA solution from the 96-well plate, rinsed successively with Buffer A and Buffer B.
To Buffer B, solutions of the present application compound dissolved with DMSO (final DMSO concentration: 0.2%) and recombinant human PAI-1 (Molecular Innovations, Inc.) were added and blended so that the final concentrations would be 0.1 to 3.0 μM and 50 ng/ml respectively, and were incubated for 15 minutes on ice. These mixed solutions were added to rinsed 96-well plates at 100 μl/well, and incubated for 60 minutes at room temperature. To prepare calibration curve, PAI-1 solutions without the present application compound (solutions where the final concentrations being 100, 50, 25, 12.5, 6.25, 3.13, 1.56 ng/ml PAI-1) were added at 100 μl/well, and were incubated for 60 minutes at room temperature, as standard.
After incubation, the reaction mixture was suction removed, and rinsed each well with Wash Buffer. Next, anti-human PAI-1 monoclonal antibody (PROGEN Inc.) diluted with Buffer C to be 3.0 μg/ml was added to the 96-well plate at 100 μl/well, and incubated for 1 hour at room temperature. After rinsing each well with Wash Buffer, alkaline phosphatase-labeled goat anti-mouse IgG (H+L) (Jackson ImmunoResearch, Inc.) diluted with Buffer D to be 0.12 μg/ml was added at 100 μl/well, and incubated for 1 hour at room temperature. After rinsing each well with Wash Buffer, 1.0 mg/ml p-Nitrophenyl Phosphate (SIGMA) was added to the 96-well plate at 100 μl/well to start the reaction. After 30 to 60 minutes, 25 μl of 0.5 N NaOH was added to stop the reaction, and the absorbance was measured at 405 nm using a multiplate reader (GENios; TECAN G.M.B.H.).
Based on the calibration curve prepared from the standard wells, amounts of PAI-1 bound to tPA in the wells treated with the present application compound were calculated, and the PAI-1 inhibition rates by the present application compounds were obtained by the following equation. [PAI-1 Inhibition Rate (%)]=[1-(amount of PAI-1 bound to tPA on the well treated with the present application compound)/(amount of PAI-1 bound to tPA on the well treated with PAI-1 solution without present application compound (solution with the final concentration of 50 ng/ml PAI-1)]×100 <Composition of Buffer A> 0.1 M Tris-HCl-150 150 mM NaCl pH 7.7 <Composition of Buffer B> 50 mM sodium phosphate 0.1 M NaCl 1 mM EDTA pH 6.6 <Composition of Buffer C> 50 mM sodium phosphate 100 mM NaCl pH 7.4 <Composition of Buffer D> 0.01 M Tris-HCl 0.25 M NaCl pH 8.0 <Composition of Wash Buffer> 0.05% Tween 20 0.1% BSA in Buffer A <Composition of p-Nitrophenyl Phosphate Solution> 1 M Diethanolamine 0.5 mM MgCl2 p-Nitrophenyl phosphate pH 9.8

Experiment [4] addresses T1, recombinant human PAI-1. In words: Test Example 2: human PAI-1 inhibitory activity (tPA fluorogenic substrate assay, pH7.4 HEPES buffer). The conditions noted are these: for inhibition at 3 µM: pH 7.4, read-out: Inhibition Rate of Human PAI-1 Activity (%); for IC50: pH7.4 HEPES buffer, obtained from Table 5 results. The procedure: as §1
<Compotion of pH7.4 HEPES Buffer>
0.1% Polyethylene glycol 8,000 (Hampton Research Corporation)
2 mM Dimethyldecylphoshine oxide [Apo-10] (Fluka Corporation)

SMILES strings stand for the structures.

T1 sequence (P05121 24-402): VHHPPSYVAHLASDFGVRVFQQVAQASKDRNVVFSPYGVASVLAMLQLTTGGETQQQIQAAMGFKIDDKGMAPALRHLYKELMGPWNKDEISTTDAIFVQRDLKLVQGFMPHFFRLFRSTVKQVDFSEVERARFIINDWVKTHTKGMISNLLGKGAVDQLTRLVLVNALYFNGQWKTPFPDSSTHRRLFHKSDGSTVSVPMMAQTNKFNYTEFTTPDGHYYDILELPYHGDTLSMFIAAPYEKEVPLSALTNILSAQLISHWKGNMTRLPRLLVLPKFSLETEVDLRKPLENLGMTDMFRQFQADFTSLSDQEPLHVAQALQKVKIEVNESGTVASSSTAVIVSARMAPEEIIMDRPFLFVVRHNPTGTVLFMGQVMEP

For the compound `O=C(O)C(=O)N(Cc1ccccc1)c1ccc(-c2ccc(OC(F)(F)F)cc2)cc1` [compound 6, N-benzyl-N-[4′-(trifluoromethoxy)biphenyl-4-yl]oxamic Acid], in experiment [1], the inhibition at 5 µM is 6% and the inhibition at 10 µM turned out to be 12%.
Turning to `CC(C)(C)c1ccc(CN(C(=O)C(=O)O)c2ccc(-c3ccc(C(F)(F)F)cc3)cc2)cc1` [compound 24, N-[4-(tert-butyl)benzyl]-N-[4′-(trifluoromethyl)phenyl-4-yl]oxamic Acid], the entries for the “Inhibition Rate of Human PAI-1 Activity (%)” value in experiment [1] (compound 5 μM), in experiment [1] (compound 10 μM) and in experiment [1] (compound 25 μM) were 7%, 35% and 74%, respectively.
As for `O=C(O)C(=O)N(Cc1ccc(C(F)(F)F)cc1)c1ccc(-c2ccc(OC(F)(F)F)cc2)cc1` [compound 34, N-[4′-(trifluoromethoxy)biphenyl-4-yl]-N-[4-(trifluoromethyl)benzyl]oxamic Acid], in experiment [1], the inhibition at 5 µM is 15%, the inhibition at 10 µM was found to be 38% and the inhibition at 25 µM was determined as 81%.
`CC(C)(C)c1ccccc1N(C(=O)C(=O)O)c1ccccc1-c1ccc(OC(F)(F)F)cc1` [compound 37, N-[2-(tert-butyl)phenyl]-N-[4′-(trifluoromethoxy)biphenyl-2-yl]oxamic Acid]: in experiment [1], the inhibition at 5 µM turned out to be 25%, the inhibition at 10 µM amounted to 56% and the inhibition at 25 µM amounted to 96%.
Turning to `CCC(CC)Oc1ccc(N(Cc2ccc(C(C)(C)C)cc2)C(=O)C(=O)O)cc1-c1ccc(OC(F)(F)F)cc1` [compound 77, N-[4-(tert-butyl)benzyl]-N-[2-(1-ethylpropoxy)-4′-(trifluoromethoxy)biphenyl-5-yl]oxamic Acid], the results for the half-inhibitory concentration (IC50) in experiment [2] and in experiment [4] were 1420 nM and 1040 nM, respectively. Besides, the inhibition at 0.1 µM in experiment [3] was determined as 12%. Also, the inhibition at 3 µM in experiment [4] is > 99%.
The matching figures for `CCCOc1ccc(N(Cc2ccc(C(C)(C)C)cc2)C(=O)C(=O)O)c(-c2ccc(OC(F)(F)F)cc2)c1` [compound 78, N-[4-(tert-butyl)benzyl]-N-[5-propoxy-4′-(trifluoromethoxy)biphenyl-2-yl]oxamic Acid]: 1840 nM, 1080 nM, 0% and > 99%.
On to `CCC(CC)Oc1ccc(-c2ccc(OC(F)(F)F)cc2)cc1N(Cc1ccc(C(C)(C)C)cc1)C(=O)C(=O)O` [compound 79, N-[4-(tert-butyl)benzyl]-N-[4-(1-ethylpropoxy)-4′-(trifluoromethoxy)biphenyl-3-yl]oxamic Acid], for which the inhibition at 10 µM in experiment [2] (pH 7.4, read-out: Inhibition Rate of Rat PAI-1 Activity (%)) was > 99%. The IC50 in experiment [2] is 1180 nM; in experiment [4], 740 nM. Moreover, the inhibition at 0.1 µM in experiment [3] was found to be 8%. Besides, the inhibition at 3 µM in experiment [4] was > 99%.
On to `CCCCc1ccc(CN(C(=O)C(=O)O)c2ccc(-c3ccc(C(C)(C)C)cc3)cc2)cc1` [compound 86, N-(4-butylbenzyl)-N-[4′-(tert-butyl)biphenyl-4-yl]oxamic Acid], for which, in experiment [2], the IC50 came to 1390 nM. Also, in experiment [3], the inhibition at 0.1 µM was determined as 0% and the inhibition at 0.3 µM is 0%. Moreover, in experiment [4], the inhibition at 3 µM is > 99% and the IC50 came out at 730 nM.
With `CCN(CC)c1ccc(N(Cc2ccc(C(C)(C)C)cc2)C(=O)C(=O)O)c(-c2ccc(OC(F)(F)F)cc2)c1` [compound 88, N-[4-(tert-butyl)benzyl]-N-[5-diethylamino-4′-(trifluoromethoxy)biphenyl-2-yl]oxamic Acid], the IC50 in experiment [2] is 1890 nM. For the same compound, in experiment [3], the inhibition at 0.1 µM is 0% and the inhibition at 0.3 µM is 0%. In experiment [4], the IC50 was 1130 nM.
